Data as given in US20230127499A1, “PEPTIDES AND ADJUVANTS FOR AU[…] […] FOR CORONAVIRUS” (FIGENE, LLC, priority 2020, published 2023).
Like-named read-outs stand apart in the source and are kept apart here.

Key:
[1] = system: human peripheral blood mononuclear cell (PBMC) derived monocytes; assay: Endotoxin-induced TNF production in monocyte/fibroblast cultures (ELISA); assay type: cell-based; details: LPS 1 ug/ml, FIG. 5
Protocol: Hydroxychloroquine (Sigma Aldrich) was diluted at the concentrations indicated. Levels of tumor necrosis factor (TNF) were assessed by ELISA.

healthy rats = details: 500 ng intra-tracheally; within 5 hours; versus saline-treated control rats; cited from earlier work
neutrophils = details: cited from earlier work; for neutrophil apoptosis: 100 ng/mL

Compound | production of TNF-alpha from macrophages [1] | lung lavage neutrophils (healthy rats) | lung leak (healthy rats) | lung myeloperoxidase (MPO) activity (healthy rats) | neutrophil apoptosis (neutrophils; at 4-8 h) | neutrophil apoptosis (neutrophils; at 24 h) | levels of IL-8 (neutrophils; PMN cultured for 24 h)
CCN(CCO)CCCC(C)Nc1ccnc2cc(Cl)ccc12 (stereo not shown) [hydroxychloroquine] | suppressed production of TNF-alpha |  |  |  |  |  | 
TNF-alpha |  | substantially higher | substantially higher | substantially higher | increased | markedly suppressed | markedly increased
